In patent publication US9340590B2 (priority 2011, dated 2016):
Where two headings read alike, the source gives them in different places. Positions of bridges follow the written chain, without caps; N, C: chain ends. Residues, ends and D or L forms follow the SMILES beside them.

Target: hNav1.7 (Homo sapiens, UniProt Q15858)
Test: cell-based
Assay type: cell-based
Details: read-out: IWQ Use Nav1.7

Chain of hNav1.7 (Q15858 whole entry, looked up): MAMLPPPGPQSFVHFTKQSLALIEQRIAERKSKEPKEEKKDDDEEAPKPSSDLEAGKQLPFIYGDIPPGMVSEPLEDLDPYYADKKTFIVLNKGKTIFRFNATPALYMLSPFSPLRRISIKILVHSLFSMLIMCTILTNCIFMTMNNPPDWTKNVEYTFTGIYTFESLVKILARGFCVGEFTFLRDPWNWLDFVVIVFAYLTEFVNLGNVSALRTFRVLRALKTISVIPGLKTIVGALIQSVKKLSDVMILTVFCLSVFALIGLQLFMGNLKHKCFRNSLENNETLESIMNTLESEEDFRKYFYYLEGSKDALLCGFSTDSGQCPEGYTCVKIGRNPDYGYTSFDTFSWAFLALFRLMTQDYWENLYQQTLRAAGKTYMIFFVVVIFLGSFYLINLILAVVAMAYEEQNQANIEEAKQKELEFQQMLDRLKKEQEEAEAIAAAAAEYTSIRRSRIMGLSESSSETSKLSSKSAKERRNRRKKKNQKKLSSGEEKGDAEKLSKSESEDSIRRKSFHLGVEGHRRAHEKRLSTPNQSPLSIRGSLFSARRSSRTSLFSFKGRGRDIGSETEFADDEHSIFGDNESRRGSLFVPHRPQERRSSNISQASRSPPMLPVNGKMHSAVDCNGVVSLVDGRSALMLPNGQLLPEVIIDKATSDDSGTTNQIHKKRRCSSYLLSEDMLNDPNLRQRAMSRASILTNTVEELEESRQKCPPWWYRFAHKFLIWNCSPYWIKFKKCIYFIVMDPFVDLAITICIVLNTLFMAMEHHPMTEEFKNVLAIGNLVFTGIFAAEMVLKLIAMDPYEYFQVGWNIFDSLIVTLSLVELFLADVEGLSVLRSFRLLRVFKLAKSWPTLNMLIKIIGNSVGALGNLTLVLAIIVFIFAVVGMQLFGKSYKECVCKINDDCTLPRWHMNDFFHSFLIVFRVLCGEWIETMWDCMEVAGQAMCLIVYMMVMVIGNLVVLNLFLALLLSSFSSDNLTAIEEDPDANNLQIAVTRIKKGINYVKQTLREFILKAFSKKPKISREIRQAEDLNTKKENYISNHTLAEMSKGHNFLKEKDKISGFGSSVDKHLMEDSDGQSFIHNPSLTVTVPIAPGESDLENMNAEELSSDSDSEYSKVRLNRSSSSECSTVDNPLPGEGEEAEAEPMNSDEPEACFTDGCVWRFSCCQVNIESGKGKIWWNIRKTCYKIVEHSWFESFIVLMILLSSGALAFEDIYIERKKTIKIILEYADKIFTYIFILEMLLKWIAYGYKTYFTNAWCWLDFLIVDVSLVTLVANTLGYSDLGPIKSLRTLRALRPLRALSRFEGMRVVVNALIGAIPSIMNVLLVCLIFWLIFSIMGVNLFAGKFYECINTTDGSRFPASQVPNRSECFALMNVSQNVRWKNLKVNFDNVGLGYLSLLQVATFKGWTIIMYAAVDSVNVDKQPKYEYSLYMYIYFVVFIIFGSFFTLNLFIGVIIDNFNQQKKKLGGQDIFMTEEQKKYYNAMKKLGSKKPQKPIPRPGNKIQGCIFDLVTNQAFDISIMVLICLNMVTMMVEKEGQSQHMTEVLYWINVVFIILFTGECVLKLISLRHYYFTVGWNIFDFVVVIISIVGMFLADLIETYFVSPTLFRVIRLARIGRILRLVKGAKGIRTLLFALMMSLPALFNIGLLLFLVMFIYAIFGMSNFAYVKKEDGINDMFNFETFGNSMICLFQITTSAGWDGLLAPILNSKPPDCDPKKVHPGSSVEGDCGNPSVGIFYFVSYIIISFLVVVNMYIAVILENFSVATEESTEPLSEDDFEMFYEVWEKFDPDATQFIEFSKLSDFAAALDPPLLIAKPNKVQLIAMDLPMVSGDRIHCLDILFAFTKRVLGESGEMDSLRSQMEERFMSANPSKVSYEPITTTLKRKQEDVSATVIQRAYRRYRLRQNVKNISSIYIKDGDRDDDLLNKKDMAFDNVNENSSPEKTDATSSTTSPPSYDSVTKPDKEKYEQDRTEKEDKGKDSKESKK

SMILES: CSCC[C@@H]1NC(=O)[C@H](Cc2ccccc2)NC(=O)CNC(=O)[C@H](CC(C)C)NC(=O)[C@@H](NC(=O)[C@@H](N)CC(=O)O)CSSC[C@@H]2NC(=O)[C@@H]3CSSC[C@@H](C(=O)N[C@@H](CCCCN)C(=O)N[C@@H](Cc4ccc(O)cc4)C(=O)N[C@H](C(=O)N[C@@H](Cc4ccccc4)C(N)=O)C(C)C)NC(=O)[C@H](Cc4c[nH]c5ccccc45)NC(=O)[C@H](CCCCN)NC(=O)[C@H](Cc4c[nH]cn4)NC(=O)[C@H]([C@@H](C)O)NC(=O)[C@H](CCCNC(=N)N)NC(=O)[C@H](CO)NC(=O)[C@H](CSSC[C@H](NC(=O)[C@H](CCCCN)NC(=O)[C@H](CCCNC(=N)N)NC1=O)C(=O)N[C@@H](C)C(=O)N1CCC[C@H]1C(=O)N[C@@H](CC(=O)O)C(=O)N[C@@H](CC(N)=O)C(=O)N[C@@H](CC(=O)O)C(=O)N[C@@H](CCCCN)C(=O)N3)NC(=O)[C@H](C(C)C)NC(=O)[C@H](CC(C)C)NC(=O)[C@H](CC(N)=O)NC(=O)[C@@H]1CCCN1C(=O)[C@H](CCCNC(=N)N)NC2=O [compound 45] (H-DCLGFMRKCAPDNDKCCRPNLVCSRTHKWCKYVF-NH2; disulfide 2-17, 9-23, 16-30)
- IC50 (IonWorks Quattro, Use): 210 nM

SMILES: CC[C@H](C)[C@@H]1NC(=O)[C@@H]2CSSC[C@@H]3NC(=O)[C@H](C(C)C)NC(=O)[C@H](CC(C)C)NC(=O)[C@H](CC(N)=O)NC(=O)[C@@H]4CCCN4C(=O)[C@H](CCCNC(=N)N)NC(=O)[C@H](CSSC[C@H](NC(=O)[C@@H](N)CC(=O)O)C(=O)N[C@@H](CC(C)C)C(=O)NCC(=O)N[C@@H](Cc4ccccc4)C(=O)N[C@@H](CCSC)C(=O)N[C@@H](CCCNC(=N)N)C(=O)N[C@@H](CCCCN)C(=O)N2)NC(=O)[C@H](CSSC[C@@H](C(=O)N[C@@H](CCCCN)C(=O)N[C@@H](Cc2ccc(O)cc2)C(=O)N[C@H](C(=O)N[C@@H](Cc2ccccc2)C(N)=O)C(C)C)NC(=O)[C@H](Cc2c[nH]c4ccccc24)NC(=O)[C@H](CCCCN)NC(=O)[C@H](Cc2c[nH]cn2)NC(=O)[C@H]([C@@H](C)O)NC(=O)[C@H](CCCNC(=N)N)NC(=O)[C@H](CO)NC3=O)NC(=O)[C@H](CCCCN)NC(=O)[C@H](CC(=O)O)NC(=O)[C@H](CCCCN)NC(=O)[C@H](CC(=O)O)NC(=O)[C@@H]2CCCN2C1=O [compound 48] (H-DCLGFMRKCIPDKDKCCRPNLVCSRTHKWCKYVF-NH2; disulfide 2-17, 9-23, 16-30)
- IC50 (IonWorks Quattro, Use): 210 nM

SMILES: CC[C@H](C)[C@@H]1NC(=O)[C@@H]2CSSC[C@@H]3NC(=O)[C@H](C(C)C)NC(=O)[C@H](CC(C)C)NC(=O)[C@H](CC(N)=O)NC(=O)[C@H](CCCCN)NC(=O)[C@H](CCCNC(=N)N)NC(=O)[C@H](CSSC[C@H](NC(=O)[C@@H](N)CC(=O)O)C(=O)N[C@@H](CC(C)C)C(=O)NCC(=O)N[C@@H](Cc4ccccc4)C(=O)N[C@@H](CCSC)C(=O)N[C@@H](CCCNC(=N)N)C(=O)N[C@@H](CCCCN)C(=O)N2)NC(=O)[C@H](CSSC[C@@H](C(=O)N[C@@H](CCCCN)C(=O)N[C@@H](Cc2ccc(O)cc2)C(=O)N[C@H](C(=O)N[C@@H](Cc2ccccc2)C(N)=O)C(C)C)NC(=O)[C@H](Cc2c[nH]c4ccccc24)NC(=O)[C@H](CCCCN)NC(=O)[C@H](Cc2c[nH]cn2)NC(=O)[C@H]([C@@H](C)O)NC(=O)[C@H](CCCNC(=N)N)NC(=O)[C@H](CO)NC3=O)NC(=O)[C@H](CCCCN)NC(=O)[C@H](CC(=O)O)NC(=O)[C@H](CC(N)=O)NC(=O)[C@H](CC(=O)O)NC(=O)[C@@H]2CCCN2C1=O [compound 50] (H-DCLGFMRKCIPDNDKCCRKNLVCSRTHKWCKYVF-NH2; disulfide 2-17, 9-23, 16-30)
- IC50: 120 nM

SMILES: CC[C@H](C)[C@@H]1NC(=O)[C@@H]2CSSC[C@@H]3NC(=O)[C@H](C(C)C)NC(=O)[C@H](CC(C)C)NC(=O)[C@H](CC(N)=O)NC(=O)[C@@H]4CCCN4C(=O)[C@H](CCCNC(=N)N)NC(=O)[C@H](CSSC[C@H](NC(=O)[C@@H](N)CC(=O)O)C(=O)N[C@@H](CC(C)C)C(=O)NCC(=O)N[C@@H](Cc4ccccc4)C(=O)N[C@@H](CCSC)C(=O)N[C@@H](CCCNC(=N)N)C(=O)N[C@@H](CCCCN)C(=O)N2)NC(=O)[C@H](CSSC[C@@H](C(=O)N[C@@H](CCCCN)C(=O)N[C@@H](Cc2ccc(O)cc2)C(=O)N[C@H](C(=O)N[C@@H](Cc2ccccc2)C(N)=O)C(C)C)NC(=O)[C@H](Cc2c[nH]c4ccccc24)NC(=O)[C@H](CCCCN)NC(=O)[C@H](Cc2c[nH]cn2)NC(=O)[C@H]([C@@H](C)O)NC(=O)[C@H](CCCCN)NC(=O)[C@H](CO)NC3=O)NC(=O)[C@H](CCCCN)NC(=O)[C@H](CC(=O)O)NC(=O)[C@H](CC(N)=O)NC(=O)[C@H](CC(=O)O)NC(=O)[C@@H]2CCCN2C1=O [compound 53] (H-DCLGFMRKCIPDNDKCCRPNLVCSKTHKWCKYVF-NH2; disulfide 2-17, 9-23, 16-30)
- IC50 (IonWorks Quattro, Use): 380 nM

SMILES: CC[C@H](C)[C@@H]1NC(=O)[C@@H]2CSSC[C@@H]3NC(=O)[C@H](C(C)C)NC(=O)[C@H](CC(C)C)NC(=O)[C@H](CC(N)=O)NC(=O)[C@@H]4CCCN4C(=O)[C@H](CCCNC(=N)N)NC(=O)[C@H](CSSC[C@H](NC(=O)[C@@H](N)CC(=O)O)C(=O)N[C@@H](CC(C)C)C(=O)NCC(=O)N[C@@H](Cc4ccccc4)C(=O)N[C@@H](CCSC)C(=O)N[C@@H](CCCNC(=N)N)C(=O)N[C@@H](CCCCN)C(=O)N2)NC(=O)[C@H](CSSC[C@@H](C(=O)N[C@@H](CCCCN)C(=O)N[C@@H](Cc2ccc(O)cc2)C(=O)N[C@H](C(=O)N[C@@H](Cc2ccccc2)C(N)=O)C(C)C)NC(=O)[C@H](Cc2c[nH]c4ccccc24)NC(=O)[C@H](CCCCN)NC(=O)[C@H](Cc2c[nH]cn2)NC(=O)[C@H]([C@@H](C)O)NC(=O)[C@H](CCCNC(=N)N)NC(=O)[C@H](CO)NC3=O)NC(=O)[C@H](CCCCN)NC(=O)[C@H](CC(=O)O)NC(=O)[C@H](CC(N)=O)NC(=O)[C@H](CCCNC(=N)N)NC(=O)[C@@H]2CCCN2C1=O [compound 67] (H-DCLGFMRKCIPRNDKCCRPNLVCSRTHKWCKYVF-NH2; disulfide 2-17, 9-23, 16-30)
- IC50: 110 nM

SMILES: CC[C@H](C)[C@@H]1NC(=O)[C@@H]2CSSC[C@@H]3NC(=O)[C@H](C(C)C)NC(=O)[C@H](CC(C)C)NC(=O)[C@H](CCCNC(=N)N)NC(=O)[C@@H]4CCCN4C(=O)[C@H](CCCNC(=N)N)NC(=O)[C@H](CSSC[C@H](NC(=O)[C@@H](N)CC(=O)O)C(=O)N[C@@H](CC(C)C)C(=O)NCC(=O)N[C@@H](Cc4ccccc4)C(=O)N[C@@H](CCSC)C(=O)N[C@@H](CCCNC(=N)N)C(=O)N[C@@H](CCCCN)C(=O)N2)NC(=O)[C@H](CSSC[C@@H](C(=O)N[C@@H](CCCCN)C(=O)N[C@@H](Cc2ccc(O)cc2)C(=O)N[C@H](C(=O)N[C@@H](Cc2ccccc2)C(N)=O)C(C)C)NC(=O)[C@H](Cc2c[nH]c4ccccc24)NC(=O)[C@H](CCCCN)NC(=O)[C@H](Cc2c[nH]cn2)NC(=O)[C@H]([C@@H](C)O)NC(=O)[C@H](CCCNC(=N)N)NC(=O)[C@H](CO)NC3=O)NC(=O)[C@H](CCCCN)NC(=O)[C@H](CC(=O)O)NC(=O)[C@H](CC(N)=O)NC(=O)[C@H](CC(=O)O)NC(=O)[C@@H]2CCCN2C1=O [compound 69] (H-DCLGFMRKCIPDNDKCCRPRLVCSRTHKWCKYVF-NH2; disulfide 2-17, 9-23, 16-30)
- IC50 (IonWorks Quattro, Use): 170 nM

SMILES: CC[C@H](C)[C@@H]1NC(=O)[C@@H]2CSSC[C@@H]3NC(=O)[C@H](C(C)C)NC(=O)[C@H](CC(C)C)NC(=O)[C@H](CC(N)=O)NC(=O)[C@@H]4CCCN4C(=O)[C@H](CCCNC(=N)N)NC(=O)[C@H](CSSC[C@H](NC(=O)[C@@H](N)CC(=O)O)C(=O)N[C@@H](CC(C)C)C(=O)NCC(=O)N[C@@H](Cc4ccccc4)C(=O)N[C@@H](CCSC)C(=O)N[C@@H](CCCNC(=N)N)C(=O)N[C@@H](CCCCN)C(=O)N2)NC(=O)[C@H](CSSC[C@@H](C(=O)N[C@@H](CCCCN)C(=O)N[C@@H](Cc2ccc(O)cc2)C(=O)N[C@@H](CCCNC(=N)N)C(=O)N[C@@H](Cc2ccccc2)C(N)=O)NC(=O)[C@H](Cc2c[nH]c4ccccc24)NC(=O)[C@H](CCCCN)NC(=O)[C@H](Cc2c[nH]cn2)NC(=O)[C@H]([C@@H](C)O)NC(=O)[C@H](CCCNC(=N)N)NC(=O)[C@H](CO)NC3=O)NC(=O)[C@H](CCCCN)NC(=O)[C@H](CC(=O)O)NC(=O)[C@H](CC(N)=O)NC(=O)[C@H](CC(=O)O)NC(=O)[C@@H]2CCCN2C1=O [compound 74] (H-DCLGFMRKCIPDNDKCCRPNLVCSRTHKWCKYRF-NH2; disulfide 2-17, 9-23, 16-30)
- IC50 (Table 26, IonWorks Quattro, use, […]): 80 nM

SMILES: CC[C@H](C)[C@@H]1NC(=O)[C@@H]2CSSC[C@@H]3NC(=O)[C@H](CCC(=O)O)NC(=O)[C@H](CC(C)C)NC(=O)[C@H](CC(N)=O)NC(=O)[C@@H]4CCCN4C(=O)[C@H](CCCNC(=N)N)NC(=O)[C@H](CSSC[C@H](NC(=O)[C@@H](N)CC(=O)O)C(=O)N[C@@H](CC(C)C)C(=O)NCC(=O)N[C@@H](Cc4ccccc4)C(=O)N[C@@H](CCSC)C(=O)N[C@@H](CCCNC(=N)N)C(=O)N[C@@H](CCCCN)C(=O)N2)NC(=O)[C@H](CSSC[C@@H](C(=O)N[C@@H](CCCCN)C(=O)N[C@@H](Cc2ccc(O)cc2)C(=O)N[C@H](C(=O)N[C@@H](Cc2ccccc2)C(N)=O)C(C)C)NC(=O)[C@H](Cc2c[nH]c4ccccc24)NC(=O)[C@H](CCCCN)NC(=O)[C@H](Cc2c[nH]cn2)NC(=O)[C@H]([C@@H](C)O)NC(=O)[C@H](CCCNC(=N)N)NC(=O)[C@H](CO)NC3=O)NC(=O)[C@H](CCCCN)NC(=O)[C@H](CC(=O)O)NC(=O)[C@H](CC(N)=O)NC(=O)[C@H](CC(=O)O)NC(=O)[C@@H]2CCCN2C1=O [compound 102] (H-DCLGFMRKCIPDNDKCCRPNLECSRTHKWCKYVF-NH2; disulfide 2-17, 9-23, 16-30)
- IC50 (IonWorks Quattro, Use): 1400 nM
